Data: US20210369677A1, “SMALL MOLECULE ACTIVATORS OF POLYCYSTIN-2 (PKD2) AND USES THEREOF” (Northwestern University, priority 2020, published 2021)

Key:
[1] = target: T1, human polycystin-2 CTD EF hand (I704-P797) (Homo sapiens, UniProt Q13563); test: Isothermal titration calorimetry of divalent ions into the CTD of polycystin-2; type: binding; conditions: 25° C; read-out: Ca2+ affinity (Kd) for WT human CTD EF hand
T1 construct: The C-terminal fragment of the human polycystin-2 (I704-P797) was cloned into the PET19b vector; 10xHis (N); made in house; host or cells: E. coli BL21 (DE3)
T1 sequence (Q13563 704-797): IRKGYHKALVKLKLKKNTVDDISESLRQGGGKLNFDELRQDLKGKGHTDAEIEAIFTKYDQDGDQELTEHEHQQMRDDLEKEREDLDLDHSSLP
Method: CTD protein expression, purification, and isothermal titration calorimetry. The C-terminal fragment of the human polycystin-2 (I704-P797) was cloned into the PET19b vector and transformed into BL21 (DE3) competent cells (New England Biolabs) for bacterial expression. The translated peptide has a 10×His tag on its N-terminus. The alanine mutants of the individual calcium-coordinating residues were created and transformed as well. Cells were grown in 2XYT broth in a 37° C. shaking incubator until OD600 reaches ˜0.6, and were induced by 0.4 mM isopropyl 1-thio-β-D-galactopyranoside and grown for another 4 hours. Cells were harvested and resuspended in Buffer A (500 mM NaCl, 20 mM Tris/HCl, pH 7.4), 5% glycerol, 0.25 mM EDTA pH 8.0, 1 mM PMSF (RPI), 25 μg/ml of lysozyme and DNase I (GoldBio). The suspension was then lysed by sonication and clarified by centrifugation (30,000×g for 0.5 h). Filtered supernatant was loaded into a HisPur cobalt Superflow agarose column (ThermoScientific). The column was washed with 10 column volume (CV) of buffer A, 5 CV of buffer A+5 mM imidazole, and finally eluted with 3 CV of buffer A+100 mM imidazole. The eluate was desalted by dialysis in 150 mM NaCl, 20 mM Tris/HCl, 20 mM imidazole, pH 7.4. SDS-PAGE gel confirmed the expression, solubility, and purity of the peptide. All of our solutions were formulated with ultrapure water (Milli-Q® IQ 7005 water purification system), that has less than 0.29 ng/L calcium ions present. The binding affinity is recorded based on the heat difference between the sample cell and reference cell measured by MicroCal iTC200. […] The cells were insulated by an adiabatic jacket held at 25° C. The heat of dilution of Ca^2+ was not subtracted from data sets, as the signal was prohibitively small for several of the mutant channels. The exothermic energy of the bimolecular interaction between Ca^2+ and peptide during each injection was analyzed by integrating the change in heat to generate the binding isotherm. […]

[2] = target: T2, human PKD2 channel proteins (WT or C331S) (Homo sapiens, UniProt Q13563); test: Thermal stability assay (FSEC) of purified PKD2 channel proteins; conditions: 10 mM GSH
T2 construct: purified the C331S variant of polycystin-2 (residues 53-792) protein in amphipols; made in house
T2 sequence (Q13563 53-792 C331S): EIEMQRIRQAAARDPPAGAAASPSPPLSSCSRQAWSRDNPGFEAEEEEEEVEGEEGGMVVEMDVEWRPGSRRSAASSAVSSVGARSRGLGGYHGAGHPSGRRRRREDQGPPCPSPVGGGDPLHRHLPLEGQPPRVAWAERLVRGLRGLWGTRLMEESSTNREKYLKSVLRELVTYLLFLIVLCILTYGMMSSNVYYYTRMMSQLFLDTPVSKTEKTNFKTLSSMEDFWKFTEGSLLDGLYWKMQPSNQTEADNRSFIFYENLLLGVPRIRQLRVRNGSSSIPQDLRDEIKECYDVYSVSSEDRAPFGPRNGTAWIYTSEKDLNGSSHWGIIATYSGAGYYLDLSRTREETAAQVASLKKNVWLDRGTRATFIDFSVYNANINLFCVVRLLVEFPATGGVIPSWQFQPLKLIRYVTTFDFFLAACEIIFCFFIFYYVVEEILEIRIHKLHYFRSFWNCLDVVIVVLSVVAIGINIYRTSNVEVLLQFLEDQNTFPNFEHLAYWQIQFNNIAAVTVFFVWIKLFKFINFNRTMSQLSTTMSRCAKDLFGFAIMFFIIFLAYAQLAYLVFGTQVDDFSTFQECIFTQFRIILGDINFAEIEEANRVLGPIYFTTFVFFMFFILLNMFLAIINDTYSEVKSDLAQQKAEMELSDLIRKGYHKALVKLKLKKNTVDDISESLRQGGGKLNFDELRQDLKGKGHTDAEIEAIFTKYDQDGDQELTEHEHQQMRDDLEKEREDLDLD
Method: Thermal stability assay. Approximately 9 μg of purified human PKD2 channel proteins (WT or C331S) in 30 μl buffer composed of 20 mM HEPES 150 mM NaCl, 2 mM CaCl2), 0.5 mM TCEP and 0.5 mM DDM (n-Dodecyl β-D-maltoside), at pH 7.4, were incubated at 4° C.-90° C. (4° C., room temperature, 30° C., 35.2° C., 39.3° C., 44.9° C., 49° C., 54° C., 60° C., 65.5° C., 69.4° C., 75° C., 79.3° C., 84° C., and 90° C.) for 10 minutes in a thermal cycler. To reduce the C331-C344 disulfide bond in the PKD2 channel, 10 mM GSH was added to all the buffers during purification and thermal stability assay. The treated channel samples were then diluted 10 times with the same buffer followed by centrifugation for 30 min at 40,000 rpm. 30 μl of each cleared channel samples were separated on an analytical size exclusion column (Superose™ 6 5/150 GL, GE Healthcare) at 0.3 ml/min flow rate. Proteins were detected by Tryptophan fluorescence. The FSEC-based thermostability experiments were performed in triplicates for each temperature point. The integrated area of the channel tetramer peak at different temperature points is normalized to that at 4° C. to generate the thermal stability plot.
We tested the thermal stability of PKD2 and the C331S variant in the presence or absence of NS1643. (See FIG. 33). We also performed Rosetta modeling. (See FIG. 35).

polycystin-2L1 = target: T3, polycystin-2L1 (Homo sapiens, UniProt Q9P0L9, C210S/C223S); type: cell-based; conditions: C210S:C223S mutant
T3 construct: expressed in transfected cells; host or cells: HEK cells, transient overexpression
T3 sequence (Q9P0L9 whole entry C210S/C223S): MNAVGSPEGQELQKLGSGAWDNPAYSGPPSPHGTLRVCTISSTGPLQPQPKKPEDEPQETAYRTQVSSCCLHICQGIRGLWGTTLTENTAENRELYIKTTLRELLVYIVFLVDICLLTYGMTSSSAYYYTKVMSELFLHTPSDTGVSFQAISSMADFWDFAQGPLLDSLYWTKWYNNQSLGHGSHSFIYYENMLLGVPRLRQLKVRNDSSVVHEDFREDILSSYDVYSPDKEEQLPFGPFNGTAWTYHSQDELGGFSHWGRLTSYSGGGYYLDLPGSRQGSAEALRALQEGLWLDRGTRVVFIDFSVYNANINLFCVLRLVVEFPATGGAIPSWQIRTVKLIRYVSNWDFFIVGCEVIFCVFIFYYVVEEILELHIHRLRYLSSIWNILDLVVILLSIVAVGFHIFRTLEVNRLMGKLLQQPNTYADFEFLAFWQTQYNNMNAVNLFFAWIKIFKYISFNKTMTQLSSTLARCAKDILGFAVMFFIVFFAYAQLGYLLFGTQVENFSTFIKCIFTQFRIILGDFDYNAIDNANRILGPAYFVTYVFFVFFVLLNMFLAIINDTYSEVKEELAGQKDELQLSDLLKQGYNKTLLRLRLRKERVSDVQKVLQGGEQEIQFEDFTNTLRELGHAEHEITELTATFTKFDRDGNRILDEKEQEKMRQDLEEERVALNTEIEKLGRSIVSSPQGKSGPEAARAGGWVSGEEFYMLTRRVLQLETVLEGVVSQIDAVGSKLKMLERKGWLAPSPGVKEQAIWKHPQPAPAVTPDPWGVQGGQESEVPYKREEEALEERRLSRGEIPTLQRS
Method: Electrophysiology. Ciliary ion currents were recorded using borosilicate glass electrodes polished to resistances of 14-22 MΩ using the cilium patch method previously described^32. Whole cell electrodes used to measure poly cystin-2L1 currents were fire polished to 1.5-4 MΩ resistances. Unless otherwise stated, whole cilia ionic currents were recorded in symmetrical [Na^+]. The pipette standard internal solution contained (in mM): 90 NaMES, 10 NaCl, 10 HEPES, 10 Na4-BAPTA (Glycine, N, N′-[1,2-ethanediylbis(oxy-2,1-phenylene)]bis[N-(carboxymethyl)]-,tetrasodium); pH was adjusted to 7.3 using NaOH. Standard bath solution contained 140 NaCl, 10 HEPES, 1.8 CaCl2); pH 7.4. All solutions were osmotically balanced to 295 (±6) mOsm with mannitol. Extracellular solutions containing TCEP and GSH were used within six hours of formulation. Data were collected using an Axopatch 200B patch clamp amplifier, Digidata 1440A, and pClamp 10 software. Whole-cilium and excised patch currents were digitized at 25 kHz and low-pass filtered at 10 kHz. In the whole cilium configuration, the holding potential was −60 mV and then depolarized using a 400 ms voltage ramp from −100 mV to 100 mV. The whole cell recordings of polycystin-2L1 currents were either activated by the same ramp protocol or by 100 ms depolarizations to 100 mV from a −100 mV holding potential. External conditions were controlled using a Warner Perfusion Fast-Step (SF-77B) system in which the patched cilia and electrode were held in the perfusate stream. Data were analyzed by Igor Pro 7.00 (Wavemetrics, Lake Oswego, Oreg.). The polycystin-2 open probability and the polycystin-2L1 tail current-voltage relationships were fit to a Boltzmann function, f(x)=1/(1+exp[V−V1/2]/k) to estimate voltage of half-maximal activation of current (V1/2).

SMILES | Kd [1] [µM] | Thermal denaturation of polycystin-2 channel protein under reducing conditions [2] | Effect on C210S:C223S polycystin-2L1 channel (polycystin-2L1)
[Ca+2] [Ca^2+, calcium] | 19 ± 5 | – | –
N[C@@H](CCC(=O)N[C@@H](CS)C(=O)NCC(=O)O)C(=O)O [GSH, reduced glutathione] | – | denaturing at lower temperatures | insensitive
